Experimental data as given in PubChem BioAssay AID652153 (Molecular Libraries Program, Specialized Chemistry Center, …, 2013).
The source made the active and inactive calls. The rule behind the calls is not given here.

Target: Rac GTPase-activating protein 1 (Homo sapiens) (UniProt Q9H0H5)
Assay: MgcRacGAP inhibitors, selectivity among RhoGAPs, dose response, selectivity assay, biochemical (AID 652153)
Details: MgcRacGAP GAP activity on Rac1F28L, Biomol green phosphate

Sequence of Rac GTPase-activating protein 1 (Homo sapiens) (Q9H0H5 whole entry, looked up): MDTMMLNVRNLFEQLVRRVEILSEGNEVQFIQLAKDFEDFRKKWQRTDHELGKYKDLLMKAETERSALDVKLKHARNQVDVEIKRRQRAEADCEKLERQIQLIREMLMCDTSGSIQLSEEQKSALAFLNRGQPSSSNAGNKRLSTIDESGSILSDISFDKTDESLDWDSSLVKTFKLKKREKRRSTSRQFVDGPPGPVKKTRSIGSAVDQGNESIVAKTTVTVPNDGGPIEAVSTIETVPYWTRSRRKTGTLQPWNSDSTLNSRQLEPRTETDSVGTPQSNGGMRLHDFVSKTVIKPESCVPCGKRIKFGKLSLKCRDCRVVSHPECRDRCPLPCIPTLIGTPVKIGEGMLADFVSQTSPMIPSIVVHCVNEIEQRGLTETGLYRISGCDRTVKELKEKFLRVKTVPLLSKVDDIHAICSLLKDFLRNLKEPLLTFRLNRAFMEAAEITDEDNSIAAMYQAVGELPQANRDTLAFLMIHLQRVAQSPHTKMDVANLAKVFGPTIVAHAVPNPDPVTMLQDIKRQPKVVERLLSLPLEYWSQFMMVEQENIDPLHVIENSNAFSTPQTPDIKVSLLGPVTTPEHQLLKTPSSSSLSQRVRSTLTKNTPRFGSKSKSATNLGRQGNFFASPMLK

Row | SMILES | IC50
1 | COc1ccc(NC2CCCN(C(=O)C3(C)CCCCC3)C2)cc1 (stereo unspecified) | inactive
2 | O=c1c2ccc(F)cc2sn1-c1ccccc1 | inactive
3 | C[n+]1c(-c2ccc(C=NNC(=O)c3ccc(C(=O)NN=Cc4ccc(-c5cn6ccccc6[n+]5C)cc4)cc3)cc2)cn2ccccc21 | inactive
4 | O=C1C(SCCO)=C(SCCO)C(=O)c2ccccc21 | inactive
5 | CN(C)c1ncc(C2=C(Cl)C(=O)C(N3CCCC3)=C(Cl)C2=O)s1 | inactive
6 | O=C(Nc1ccccc1Cl)/C(Cl)=C(\Cl)S(=O)c1ccccc1 (stereo unspecified) | inactive
7 | CSc1nc(N)c(N=Nc2ccc([As](=O)(O)O)cc2)c(=O)[nH]1 | inactive
8 | O=C1C=CC(=O)c2c(O)c(N3CCN(CCO)CC3)c(Cl)c(O)c21 | inactive
9 | CN(C)c1ccc(/C=C/c2cc[n+](C)c3ccccc23)cc1 | inactive
10 | CC1=NNC(=O)C1Br (stereo unspecified) | inactive
11 | Cn1ccc(=Nc2ccc(NC(=O)c3ccc(N=c4ccn(C)c5ccc([N+](=O)[O-])cc45)cc3)cc2)cc1 | 939 nM
12 | Cc1cc(C)c2c(=N)c3ccccc3n(CCCCCCCCn3c4ccccc4c(=N)c4c(C)cc(C)nc43)c2n1 | inactive
13 | O=c1c2sc3ccccc3c2[nH]c(=S)n1CCN1CCOCC1 | inactive
14 | COc1ccc(Nc2ccc3ccccc3c2)cc1 | inactive
15 | CC1OC(CC(=O)O)CC2=C1C(=O)c1c(O)cccc1C2=O (stereo unspecified) | inactive
16 | O=C1C(Cl)=C(NC(=O)c2ccccc2)C(=O)C(Cl)=C1NC(=O)c1ccccc1 | inactive
17 | Cc1ccc(C)c(-n2sc3ccc(F)cc3c2=O)c1 | inactive
18 | O=C1NC(=S)N(c2ccccc2)C(=O)/C1=C/c1ccco1 | inactive
19 | O=C1C=CC(=O)c2c(O)c(N3CCN(CCOCCO)CC3)c(Br)c(O)c21 | inactive
20 | Cc1cc(N)c2cc(NC(=O)/C=C/c3ccccc3Cl)ccc2n1 | inactive
21 | O=C1C=CC(=O)N1c1ccccc1N1C(=O)C=CC1=O | inactive
22 | Nc1n[nH]c(=S)n1/N=C1/C(=O)Nc2ccccc21 | inactive
23 | O=c1c2ccccc2sn1-c1ccc(Cl)cc1Cl | inactive

Row | SMILES | IC50
24 | COC(=O)c1cccc(-n2sc3ccccc3c2=O)c1 | inactive
25 | COc1ccc(/C=N/Nc2cc(C)nc3ccc(OC)cc23)c(OC)c1 | inactive
26 | O=C1C(=Cc2ccco2)CCC1=Cc1ccco1 | inactive
27 | O=c1c2ccccc2sn1-c1ccc(Cl)cc1 | inactive
28 | O=C(O)c1cc(N2C(=O)C=CC2=O)cc(N2C(=O)C=CC2=O)c1 | inactive
29 | O=c1c2cc(F)ccc2sn1-c1ccccc1Cl | 920 nM
30 | O=c1c2ccccc2sn1-c1cccc(Cl)c1 | 690 nM
31 | COc1ccc(-n2sc3ccc(F)cc3c2=O)cc1 | inactive
32 | Nc1ccc(OCc2ccco2)cc1 | inactive
33 | O=C(O)c1cc(N2N=C(C(F)(F)F)/C(=C/C=C/c3ccco3)C2=O)ccc1Cl | inactive
34 | O=c1c2cc(F)ccc2sn1-c1ccccc1 | inactive
35 | CC(=O)Nc1ccc2sn(-c3ccccc3)c(=O)c2c1 | 643 nM
36 | COc1ccc(-n2sc3ccccc3c2=O)cc1 | inactive
37 | O=c1c2ccccc2sn1-c1ccc(F)cc1 | inactive
38 | O=C(O)c1cccc(-n2sc3ccccc3c2=O)c1 | inactive
39 | O=C(O)C1CSC(c2ccco2)N1 (stereo unspecified) | inactive
40 | CN(C)c1ccc(C=c2c3cc(O)ccc3n3c2cc(-c2ccccc2)[n+]3C)cc1 | inactive
41 | CN(C)c1nc(=NCc2cccs2)ss1 | inactive
42 | CCN1CCN(Cc2ccc(NC(=O)c3ccc(C)c(/C=C/c4cnc(Nc5cc(N6CCNCC6)nc(C)n5)cn4)c3)cc2C(F)(F)F)CC1 | inactive
43 | Cc1ccc(-n2sc3cc(F)ccc3c2=O)c(C)c1 | inactive
44 | O=c1c2ccccc2sn1-c1ccccc1F | inactive
45 | Cc1c(Cl)sn(-c2ccc(Cl)cc2)c1=O | inactive
46 | CCN(CC)c1ccc(C(=C2C=CC(=[N+](CC)CC)C=C2)c2ccc(N(CC)CC)cc2)cc1 | inactive
